From article PMC7802075 (ACS Infectious Diseases, 2020) come the findings set out here.

Where a SMILES comes first, the peptide text is derived from it.

The first experiment has as its target T1, LmjIPCS (inositol phosphorylceramide synthase from L. major) (Leishmania major, UniProt E9AFX2).
T1 sequence (E9AFX2 1-338): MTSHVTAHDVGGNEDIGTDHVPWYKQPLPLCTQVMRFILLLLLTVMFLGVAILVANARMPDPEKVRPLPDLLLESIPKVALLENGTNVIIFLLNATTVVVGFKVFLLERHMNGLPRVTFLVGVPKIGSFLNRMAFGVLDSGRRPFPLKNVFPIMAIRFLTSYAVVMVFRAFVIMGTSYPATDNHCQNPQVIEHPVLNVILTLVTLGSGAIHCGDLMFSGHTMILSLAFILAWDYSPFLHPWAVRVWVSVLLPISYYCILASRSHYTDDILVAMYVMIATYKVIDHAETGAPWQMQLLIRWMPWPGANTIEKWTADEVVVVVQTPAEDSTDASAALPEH
The experiment in a line: biochemical.
Conditions: not given
The class given is biochemical. Further details: inhibition: dose or concentration left out as unconfirmed.
On to `COc1cccc(OC)c1OCCNCC1COc2ccccc2O1` (centres unmarked), for which the “20mM inhibition LmjIPCS” value is recorded as -4.65%.
`CN1CCC(OC(c2ccccc2)c2ccccc2)CC1`: the “20mM inhibition LmjIPCS” value is recorded as 65%.
The same measure, in the same setting: then `CCOC(=O)C1=C(O)C(=O)N(Cc2ccccc2)C1`, with -1.71%; and `NCCCCCCNS(=O)(=O)c1cccc2c(Cl)cccc12`, with 59%.
Still for that read-out and setting: as for `FC(F)(F)c1cccc(N2CCNCC2)c1`, the figure is 54%; as for `CCCc1nn(C)c2c(=O)[nH]c(-c3cc(S(=O)(=O)N4CCN(C)CC4)ccc3OCC)nc12`, 50%; as for `COc1ccc(CCN(C)CCCC(C#N)(c2ccc(OC)c(OC)c2)C(C)C)cc1OC` (centres unmarked), 42%.
Still for that read-out and setting: then 1R,2S-PHENYLPROPYLAMINE, with -2.19%; and `CNNC` [1,2-DIMETHYLHYDRAZINE], with 15%; and `COc1ccccc1N1CCNCC1` [1- (2-METHOXYPHENYL)PIPERAZINE], with 30%.
Regarding `C[C@@H](N)[C@@H](O)c1ccccc1` [1S,2R-PHENYLPROPANOLAMINE], the “20mM inhibition LmjIPCS” value stood at 19%.
On the same count and under the same terms, as for `O=[N+]([O-])c1cc(O)c(O)c([N+](=O)[O-])c1` [3,5-DINITROCATECHOL], the figure is 8%; as for `CC(C)Cn1c(=O)n(C)c(=O)c2[nH]cnc21` [3-ISOBUTYL-1-METHYLXANTHINE], 11%.
Same read-out and setting: then `CC1=NN(c2ccccc2)C(=O)C1` [3-METHYL-1-PHENYL-2-PYRAZOLIN-5-ONE], with 4.33%; and `O=C(O)c1cc2cc(F)ccc2[nH]1` [5-FLUOROINDOLE-2-CARBOXYLIC ACID], with 51%; and `O=C(O)c1cc([N+](=O)[O-])ccc1NCCCc1ccccc1` [5-NITRO-2-PHENYLPROPYLAMINOBENZOIC ACID], with 15%.
For the compound `NCCCCCC(=O)O` [6-AMINOCAPROIC ACID], the “20mM inhibition LmjIPCS” value is given as 43%.
Still for that read-out and setting: as for `Nc1c2c(nc3ccccc13)CCCC2` [9-AMINO-1,2,3,4-TETRAHYDROACRIDINE], the figure is 13%.
For `CNC(Cc1c[nH]c2ccccc12)C(=O)O` (centres unmarked) [ABRINE (L)], the “20mM inhibition LmjIPCS” value is recorded as -1%.

Still in this experiment, the particulars now being: NINDS set screen, single concentration printed as 20mM.
As for `NC(Cc1c[nH]cn1)C(=O)Nc1ccc2ccccc2c1` (centres unmarked), the “20mM inhibition LmjIPCS” value was found to be 47%.
On the same count and under the same terms, as for `Nc1nc(N)c2nc(-c3ccccc3)c(N)nc2n1`, the figure is 36%; as for `O=C(O)CCCC[C@@H]1CCSS1` (racemic) [THIOCTIC ACID], 55%.
Still for that read-out and setting: then `N[C@@H]1C[C@H]1c1ccccc1` (racemic) [TRANYLCYPROMINE], with 49%.
In the case of `CC1(C)[C@H]2CC[C@@]1(C)C(=O)C2` [1R-CAMPHOR], the “20mM inhibition LmjIPCS” value was determined as 46%.
The same measure, in the same setting: then `Cc1cc(C(C)(C)C)c(O)c(C(C)(C)C)c1` [2,6-DI-t-BUTYL-4-METHYLPHENOL], with 36%; and `c1ccc2c(Cc3c[nH]c4ccccc34)c[nH]c2c1` [3,3'-DIINDOLYLMETHANE], with 37%; and `CC(=O)NO` [ACETOHYDROXAMIC ACID], with 34%.

Staying with this experiment, now noted: NINDS set screen; read-out: inhibition LmjIPCS.
As for `O=C(O)c1nc2cc(Cl)c(Cl)cc2nc1O`, the inhibition was -14%.
Still for that read-out and setting: as for `O=[N+]([O-])c1cccc2cn[nH]c12` [7-NITROINDAZOLE], the figure is 24%; as for `CC(=O)Nc1ccc(OC(=O)c2ccccc2O)cc1` [ACETAMINOSALOL], -0.337%.

The experiment is the same for the next values; noted with them: read-out: 20mM inhibition LmjIPCS.
Consider `CC1(C)[C@@H](O)CC[C@]2(C)[C@H]3C(=O)C=C4[C@H]5C[C@@](C)(C(=O)O)CC[C@]5(C)CC[C@@]4(C)[C@]3(C)CC[C@@H]12`, for which the inhibition at 20000 µM turned out to be 7%.
The same measure, in the same setting: as for `C=CC1=C(C(=O)O)N2C(=O)[C@@H](NC(=O)/C(=N\O)c3csc(N)n3)[C@H]2SC1`, the figure is 9%.
As for `CCN(CC)C(=S)SSC(=S)N(CC)CC`, the inhibition at 20000 µM came out at 16%.
On the same count and under the same terms, then `CCOC(=O)[C@H](CCc1ccccc1)N[C@@H](C)C(=O)N1CCC[C@H]1C(=O)O`, with -20%; and `CSCC[C@H](NC=O)C(=O)N[C@@H](CC(C)C)C(=O)N[C@@H](Cc1ccccc1)C(=O)O`, with 19%.
Still for that read-out and setting: as for `CC(N/C(=N\C#N)Nc1ccncc1)C(C)(C)C` (centres unmarked), the figure is 12%; as for `CN1CCCN=C1/C=C/c1cccs1`, 20%; as for `CCOC(=O)[C@H](CCc1ccccc1)N[C@@H](C)C(=O)N1Cc2ccccc2C[C@H]1C(=O)O`, 5.45%.
Still for that read-out and setting: as for `CC(=O)NC(C(=O)O)C(C)(C)SN=O` (centres unmarked), the figure is 9%; as for `NC(=O)c1ccc[n+]([C@@H]2O[C@H](COP(=O)([O-])OP(=O)(O)OC[C@H]3O[C@@H](n4cnc5c(N)ncnc54)[C@H](OP(=O)(O)O)[C@@H]3O)[C@@H](O)[C@H]2O)c1`, 7%.
With `COc1cnc(NS(=O)(=O)c2ccc(N)cc2)nc1`, the inhibition at 20000 µM was 21%.
As to `CCOC(N)=O`, the inhibition at 20000 µM amounted to 11%.
Turning to `CC(C)C[C@H](NC(=O)CN)C(=O)N[C@@H](Cc1ccccc1)C(=O)O` (H-Gly-Leu-Phe-OH), the inhibition at 20000 µM is 11%.
The same measure, in the same setting: as for `CC=CC(=O)N(CC)c1ccccc1C` (mixture of isomers) [CROTAMITON], the figure is 22%; as for `OC[C@H]1O[C@@H](O[C@@H]2[C@@H](CO)OC(O)(CO)[C@H]2O)[C@H](O)[C@@H](O)[C@H]1O` (mixture of isomers) [LACTULOSE], 26%; as for `C#CC1(O)CC[C@H]2[C@@H]3CCC4=CC(=O)CC[C@@H]4[C@H]3CC[C@@]21CC` (mixture of isomers) [NORGESTREL], 17%.
On the same count and under the same terms, then `CN(N=O)C(=O)N[C@H]1C(O)O[C@H](CO)[C@@H](O)[C@@H]1O` (mixture of isomers) [STREPTOZOSIN], with 16%.
The same measure, in the same setting: as for `O[C@@H]1CCCC[C@H]1N1CCC(c2ccccc2)CC1` (racemic) [VESAMICOL], the figure is 14%.
For the compound `CC(C)CC(NC(=O)OCC1c2ccccc2-c2ccccc21)C(=O)O` (stereo in doubt), the inhibition at 20000 µM is 12%.
Still for that read-out and setting: then `COc1ccc2c(c1OC)C(=O)OC2[C@H]1c2cc3c(cc2CCN1C)OCO3` (stereo in doubt) [1R,9S-HYDRASTINE], with 10%.
The same measure, in the same setting: as for `CC[C@@H](C)C(=O)O[C@H]1[C@H](O)[C@H]2[C@@H](CN3C[C@@H](C)CC[C@H]3[C@@]2(C)O)[C@@H]2C[C@]34O[C@]5(O)[C@@H](OC(=O)[C@](C)(O)[C@@H](C)O)CC[C@@]3(C)[C@@H]5[C@@H](OC(C)=O)[C@@H](OC(C)=O)[C@H]4[C@@]21O` (stereo in doubt) [PROT[…]], the figure is 14%.
The same measure, in the same setting: as for `Sc1nc2ccccc2s1` [2-MERCAPTOBENZOTHIAZOLE], the figure is 24%; as for `O=c1cc[nH]c(=S)[nH]1` [2-THIOURACIL], 7%; as for `Cn1c(=O)[nH]c(=O)c2[nH]cnc21` [3-METHYLXANTHINE], 12%.
Turning to `NC(=O)c1ccc(N)nc1` [6-AMINONICOTINAMIDE], the inhibition at 20000 µM was 7.54%.
Still for that read-out and setting: as for `Cn1c(=O)c2[nH]c(C3CCCC3)nc2n(C)c1=O` [8-CYCLOPENTYLTHEOPHYLLINE], the figure is 4.71%; as for `CC(=O)Nc1ccccc1` [ACETANILIDE], 3.75%.
The same measure, in the same setting: then `COc1cc(C(C)=O)cc(OC)c1O` [ACETOSYRINGONE], with 21%.

Still in this experiment, the particulars now being: read-out: inhibition LmjIPCS.
Take `CCCn1c(=O)c2[nH]c(C3CCCC3)nc2n(CCC)c1=O`: the inhibition is 2.66%.
The same measure, in the same setting: as for `NC(=O)CN1CCCC1=O`, the figure is 6%; as for `CC1=C(CC(=O)O)c2cc(F)ccc2/C1=C\c1ccc([S+](C)[O-])cc1` (centres unmarked), 12%; as for `CCCCC(=O)N(Cc1ccc(-c2ccccc2-c2nnn[nH]2)cc1)[C@H](C(=O)O)C(C)C`, 20%.
Same read-out and setting: then `O=c1[nH]c2cc(Cl)c(Cl)cc2[nH]c1=O` [2,3-DIHYDROXY-6,7-DICHLOROQUINOXALINE], with 4%; and `NCCCCC(=O)O` [5-AMINOPENTANOIC ACID], with -2.68%.
The same measure, in the same setting: then `CCCC(=O)Nc1ccc(OCC(O)CNC(C)C)c(C(C)=O)c1` (centres unmarked) [ACEBUTOLOL], with -2.11%.

Still in this experiment, the particulars now being: screening of NINDS set, sheet Screen 1; read-out: inhibition LmjIPCS.
Regarding `COc1ccc(/C=C/C(=O)Nc2ccccc2C(=O)O)cc1OC`, the inhibition was 6.57%.
Same read-out and setting: as for `COC(=O)[C@H](Cc1ccccc1)NC(=O)[C@@H](N)CC(=O)O` (H-Asp-Phe-OMe), the figure is 10%; as for `Cn1c(=O)[nH]c2nc[nH]c2c1=O` [1-METHYLXANTHINE], 11%; as for `O=C(O)c1cc2cc(Cl)ccc2[nH]1` [5-CHLOROINDOLE-2-CARBOXYLIC ACID], 9%.
The same measure, in the same setting: then `O=C(O)c1cc(O)c2ccc(Cl)cc2n1` [7-CHLOROKYNURENIC ACID], with 9%.

Still in this experiment, the particulars now being: single concentration 20mM as printed; screening of NINDS set, sheet Screen 1.
Turning to `N=C(N)NC(=N)Nc1ccccc1` [1-PHENYLBIGUANIDE], the “20mM inhibition LmjIPCS” value amounted to 11%.
With `NCCCS(=O)(=O)O` [3-AMINOPROPANESULPHONIC ACID], the “20mM inhibition LmjIPCS” value is given as 3.28%.
Still for that read-out and setting: as for `C[C@H]1O[C@@H](n2cc(F)c(=O)[nH]c2=O)[C@H](O)[C@@H]1O` [5-FLUORO-5'-DEOXYURIDINE], the figure is 3.33%; as for `CC(=O)OCC(=O)[C@@]1(O)CC[C@H]2[C@@H]3C[C@H](C)C4=CC(=O)C=C[C@]4(C)[C@H]3[C@@H](O)C[C@@]21C` [6alpha-METHYLPREDNISOLONE ACETATE], 9%.
